Assay results from patent publication US20210254272A1, “TEXTILES HAVING ANTIMICROBIAL PROPERTIES” (Livinguard AG, priority 2015, published 2021).

Tested on: E. coli (ATCC 25922)
Assay: AATCC Test Method 100-2012 antibacterial activity of the treated textile, after 25 washes and 12 abrasion cycles, contact time 60 minutes
Type: cell-based
Conditions: for Log reduction of antimicrobial performance: 1% o.w.f; for Log reduction of antimicrobial performance in 100 GSM cotton fabric / Log reduction of antimicrobial performance in 300 GSM cotton fabric: 2 min
Description: The antibacterial activity of the textile was tested in accordance with AATCC Test Method 100-2012. Prior to the test, the fabric was cut into coupons of 2×4 inches and washed separately 25 times, and exposed to 12 abrasion cycles, as per US EPA protocol 90072PA4 (described further below). The tests were made against E. coli (ATCC 25922). Contact time was 60 minutes, after inoculating with 10^8 CFU per coupon.

[1] = exhaust 80° C., 60 min, curing 180° C., dosage 0.1% o.w.f
[2] = exhaust 80° C., 60 min, curing 180° C., dosage 0.2% o.w.f
[3] = exhaust 80° C., 60 min, curing 180° C., dosage 0.5% o.w.f
[4] = exhaust 80° C., 60 min, curing 180° C., dosage 0.8% o.w.f
[5] = exhaust 80° C., 60 min, curing 180° C., dosage 1.0% o.w.f

Q: For polyglucosamine [chitosan], which “Log reduction of antimicrobial performance of each active ingredient” value (from here on “Log reduction … of each active ingredient”) (exhaust 60° C., solution dosage 1% o.w.f, process time 60 min) is on record?
A: The value was 1.4 Log.

Q: And the “Log reduction … of each active ingredient” value (exhaust 60° C., solution dosage 1% o.w.f, process time 90 min)?
A: Its value is 1.5 Log.

Q: And the “Log reduction … of each active ingredient” value (exhaust 60° C., solution dosage 1% o.w.f, process time 120 min)?
A: The value was 1.6 Log.

Q: And the “Log reduction … of each active ingredient” value (exhaust 60° C., solution dosage 1% o.w.f, process time 180 min)?
A: Its value is 1.7 Log.

Q: And the “Log reduction … of each active ingredient” value (exhaust 60° C., solution dosage 1% o.w.f, process time 240 min)?
A: Its value is 1.65 Log.

Q: What about the “Log reduction of antimicrobial performance” value (exhaust 80° C., 60 min, curing 170° C., curing dwell time 0.5 min) of the same substance?
A: The value was 0.3 Log.

Q: What about the “Log reduction of antimicrobial performance” value (exhaust 80° C., 60 min, curing 170° C., curing dwell time 1.0 min) of the same substance?
A: Its value is 0.7 Log.

Q: And the “Log reduction of antimicrobial performance” value (exhaust 80° C., 60 min, curing 170° C., curing dwell time 1.5 min)?
A: Its value is 0.7 Log.

Q: And the “Log reduction of antimicrobial performance” value (exhaust 80° C., 60 min, curing 170° C., curing dwell time 2.0 min)?
A: The value was 1.4 Log.

Q: What about the “Log reduction of antimicrobial performance” value (exhaust 80° C., 60 min, curing 170° C., curing dwell time 2.5 min) of the same substance?
A: The value was 1.3 Log.

Q: What about the “Log reduction of antimicrobial performance” value (exhaust 80° C., 60 min, curing 170° C., curing dwell time 3.0 min) of the same substance?
A: Its value is 0.64 Log.

Q: What about the “Log reduction of antimicrobial performance” value (exhaust 80° C., 60 min, curing 180° C., curing dwell time 0.5 min) of the same substance?
A: Its value is 1.4 Log.

Q: And the “Log reduction of antimicrobial performance” value (exhaust 80° C., 60 min, curing 180° C., curing dwell time 1.0 min)?
A: Its value is 1.5 Log.

Q: What about the “Log reduction of antimicrobial performance” value (exhaust 80° C., 60 min, curing 180° C., curing dwell time 1.5 min) of the same substance?
A: The value was 1.6 Log.

Q: And the “Log reduction of antimicrobial performance” value (exhaust 80° C., 60 min, curing 180° C., curing dwell time 2.0 min)?
A: The value was 3.5 Log.

Q: What about the “Log reduction of antimicrobial performance” value (exhaust 80° C., 60 min, curing 180° C., curing dwell time 2.5 min) of the same substance?
A: The value was 3.5 Log.

Q: And the “Log reduction of antimicrobial performance” value (exhaust 80° C., 60 min, curing 180° C., curing dwell time 3.0 min)?
A: Its value is 3.4 Log.

Q: And the “Log reduction of antimicrobial performance” value (exhaust 80° C., 60 min, curing 190° C., curing dwell time 0.5 min)?
A: The value was 0.3 Log.

Q: And the “Log reduction of antimicrobial performance” value (exhaust 80° C., 60 min, curing 190° C., curing dwell time 1.0 min)?
A: Its value is 1.2 Log.

Q: What about the “Log reduction of antimicrobial performance” value (exhaust 80° C., 60 min, curing 190° C., curing dwell time 1.5 min) of the same substance?
A: Its value is 1.4 Log.

Q: What about the “Log reduction of antimicrobial performance” value (exhaust 80° C., 60 min, curing 190° C., curing dwell time 2.0 min) of the same substance?
A: Its value is 2.66 Log.

Q: And the “Log reduction of antimicrobial performance” value (exhaust 80° C., 60 min, curing 190° C., curing dwell time 2.5 min)?
A: Its value is 2.31 Log.

Q: What about the “Log reduction of antimicrobial performance” value (exhaust 80° C., 60 min, curing 190° C., curing dwell time 3.0 min) of the same substance?
A: Its value is 1.3 Log.

Q: What about the “Log reduction of antimicrobial performance” value (exhaust 80° C., 60 min, curing temperature 100 ° C.) of the same substance?
A: The value was 0.16 Log.

Q: What about the “Log reduction of antimicrobial performance” value (exhaust 80° C., 60 min, curing temperature 120 ° C.) of the same substance?
A: Its value is 0.23 Log.

Q: And the “Log reduction of antimicrobial performance” value (exhaust 80° C., 60 min, curing temperature 140 ° C.)?
A: The value was 0.88 Log.

Q: And the “Log reduction of antimicrobial performance” value (exhaust 80° C., 60 min, curing temperature 160 ° C.)?
A: The value was 1.34 Log.

Q: And the “Log reduction of antimicrobial performance” value (exhaust 80° C., 60 min, curing temperature 165 ° C.)?
A: Its value is 1.38 Log.

Q: What about the “Log reduction of antimicrobial performance” value (exhaust 80° C., 60 min, curing temperature 170 ° C.) of the same substance?
A: The value was 1.48 Log.

Q: And the “Log reduction of antimicrobial performance” value (exhaust 80° C., 60 min, curing temperature 175 ° C.)?
A: The value was 2.41 Log.

Q: And the “Log reduction of antimicrobial performance” value (exhaust 80° C., 60 min, curing temperature 180 ° C.)?
A: The value was 2.67 Log.

Q: And the “Log reduction of antimicrobial performance” value (exhaust 80° C., 60 min, curing temperature 185 ° C.)?
A: Its value is 2.68 Log.

Q: What about the “Log reduction of antimicrobial performance” value (exhaust 80° C., 60 min, curing temperature 190 ° C.) of the same substance?
A: The value was 2.69 Log.

Q: And the “Log reduction of antimicrobial performance” value (exhaust 80° C., 60 min, curing temperature 195 ° C.)?
A: Its value is 2.71 Log.

Q: And the “Log reduction of antimicrobial performance in 100 GSM cotton fabric” value (“Log reduction … in 100 GSM cotton fabric” below) [1]?
A: The value was 0.63 Log.

Q: And the “Log reduction of antimicrobial performance in 300 GSM cotton fabric” value (from here on “Log reduction … in 300 GSM cotton fabric”) [1]?
A: The value was 0.65 Log.

Q: What about the “Log reduction … in 100 GSM cotton fabric” value [2] of the same substance?
A: The value was 1.37 Log.

Q: What about the “Log reduction … in 300 GSM cotton fabric” value [2] of the same substance?
A: The value was 1.38 Log.

Q: And the “Log reduction … in 100 GSM cotton fabric” value [3]?
A: The value was 1.91 Log.

Q: What about the “Log reduction … in 300 GSM cotton fabric” value [3] of the same substance?
A: Its value is 1.91 Log.

Q: What about the “Log reduction … in 100 GSM cotton fabric” value [4] of the same substance?
A: The value was 2.21 Log.

Q: And the “Log reduction … in 300 GSM cotton fabric” value [4]?
A: The value was 2.21 Log.

Q: What about the “Log reduction … in 100 GSM cotton fabric” value [5] of the same substance?
A: Its value is 2.71 Log.

Q: What about the “Log reduction … in 300 GSM cotton fabric” value [5] of the same substance?
A: The value was 2.72 Log.

Q: And the “Log reduction … of each active ingredient” value (exhaust 80° C., 60 min, dosage 1% o.w.f (test up to 5% o.w.f))?
A: The value was 2.45 Log.

Q: What about the “Log reduction … of each active ingredient” value (exhaust 80° C., 60 min, dosage 2% o.w.f) of the same substance?
A: The value was 2.46 Log.

Q: And the “Log reduction … of each active ingredient” value (exhaust 80° C., 60 min, dosage 3% o.w.f)?
A: The value was 2.47 Log.

Q: What about the “Log reduction … of each active ingredient” value (exhaust 80° C., 60 min, dosage 4% o.w.f) of the same substance?
A: The value was 2.47 Log.

Q: And the “Log reduction … of each active ingredient” value (exhaust 80° C., 60 min, dosage 5% o.w.f)?
A: Its value is 2.47 Log.

Q: And the “Log reduction … of each active ingredient” value (exhaust 80 ° C., solution dosage 1% o.w.f, process time 10 min)?
A: Its value is 0.67 Log.

Q: What about the “Log reduction … of each active ingredient” value (exhaust 80 ° C., solution dosage 1% o.w.f, process time 20 min) of the same substance?
A: Its value is 1.13 Log.

Q: And the “Log reduction … of each active ingredient” value (exhaust 80 ° C., solution dosage 1% o.w.f, process time 30 min)?
A: Its value is 1.43 Log.

Q: What about the “Log reduction … of each active ingredient” value (exhaust 80 ° C., solution dosage 1% o.w.f, process time 40 min) of the same substance?
A: Its value is 1.73 Log.

Q: What about the “Log reduction … of each active ingredient” value (exhaust 80 ° C., solution dosage 1% o.w.f, process time 50 min) of the same substance?
A: The value was 2.45 Log.

Q: What about the “Log reduction … of each active ingredient” value (exhaust 80 ° C., solution dosage 1% o.w.f, process time 60 min) of the same substance?
A: Its value is 2.67 Log.

Q: What about the “Log reduction … of each active ingredient” value (exhaust 80 ° C., solution dosage 1% o.w.f, process time 70 min) of the same substance?
A: Its value is 2.68 Log.

Q: What about the “Log reduction … of each active ingredient” value (exhaust 80 ° C., solution dosage 1% o.w.f, process time 80 min) of the same substance?
A: Its value is 2.72 Log.
